# In ChEMBL document CHEMBL1201862, “PubChem BioAssay data set” (2004):
#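 Growth conditions: 96-well plates. Treatment: test compound, 48 hours, 5 concentrations. Analysis: linear interpolation between bracketing concentrations; unreached endpoints set to highest concentration. GI50 = concentration required for 50% inhibition of growth.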 Calls of active or inactive are those of the source. No stated cut-off is given here; in the data, active = GI50 up to about 1.1 µM and inactive = higher.
# Assays:
# Assay in all cases: NCI tumour cell line growth inhibition, 48 h
# CAKI-1 = system: CAKI-1
# COLO 205 = system: COLO 205
# KM12 = system: KM12
# HCT-15 = system: HCT-15
# IGROV-1 = system: IGROV-1
# TK-10 = system: TK-10
# OVCAR-8 = system: OVCAR-8
# SK-MEL-28 = system: SK-MEL-28
# NCI-H460 = system: NCI-H460
# SK-OV-3 = system: SK-OV-3
# U-251 = system: U-251
# HL-60 = system: HL-60
# OVCAR-5 = system: OVCAR-5
# Malme-3M = system: Malme-3M
# SK-MEL-2 = system: SK-MEL-2
# M14 = system: M14
# NCI-H226 = system: NCI-H226
# HOP-92 = system: HOP-92
# MDA-MB-435 = system: MDA-MB-435
# SNB-75 = system: SNB-75
SMILES,GI50 (CAKI-1),GI50 (COLO 205),GI50 (KM12),GI50 (HCT-15),GI50 (IGROV-1),GI50 (TK-10),GI50 (OVCAR-8),GI50 (SK-MEL-28),GI50 (NCI-H460),GI50 (SK-OV-3),GI50 (U-251),GI50 (HL-60),GI50 (OVCAR-5),GI50 (Malme-3M),GI50 (SK-MEL-2),GI50 (M14),GI50 (NCI-H226),GI50 (HOP-92),GI50 (MDA-MB-435),GI50 (SNB-75)
CC(C)(C)OC(=O)NC(Cc1ccccc1)C(=O)OCN1C(=O)C2C3C=CC(C2C1=O)C1C2C(=O)N(COC(=O)C(Cc4ccccc4)NC(=O)OC(C)(C)C)C(=O)C2C31 (stereo not given),27.5 µM (inactive),8.22 µM (inactive),> 100 µM (inactive),43.2 µM,30.4 µM (inactive),31 µM (inactive),30.1 µM (inactive),34.6 µM (inactive),3.82 µM (inactive),37.2 µM (inactive),41.2 µM (inactive),30.7 µM (inactive),53.3 µM (inactive),39.4 µM (inactive),29.8 µM (inactive),38.9 µM (inactive),29.4 µM (inactive),86.5 µM (inactive),53.7 µM (inactive),19 µM (inactive)
Cn1c(=S)c2nc(SCc3cccnc3)[nH]c2n(C)c1=O,> 100 µM (inactive),> 100 µM (inactive),> 100 µM (inactive),> 100 µM,> 100 µM (inactive),> 100 µM (inactive),> 100 µM (inactive),> 100 µM (inactive),> 100 µM (inactive),> 100 µM (inactive),> 100 µM (inactive),> 100 µM (inactive),> 100 µM (inactive),93.8 µM (inactive),> 100 µM (inactive),> 100 µM (inactive),> 100 µM (inactive),> 100 µM (inactive),> 100 µM (inactive),96.8 µM (inactive)
CC1(C)OC2OC(C(COS(=O)(=O)C(F)(F)F)N=[N+]=[N-])C(OC(=O)c3ccccc3)C2O1 (stereo not given),> 100 µM (inactive),> 100 µM (inactive),> 100 µM (inactive),> 100 µM,,> 100 µM (inactive),> 100 µM (inactive),> 100 µM (inactive),> 100 µM (inactive),> 100 µM (inactive),> 100 µM (inactive),> 100 µM (inactive),> 100 µM (inactive),> 100 µM (inactive),> 100 µM (inactive),> 100 µM (inactive),> 100 µM (inactive),> 100 µM (inactive),> 100 µM (inactive),53.1 µM (inactive)
CCOC(=O)N1c2ccccc2N(C(=O)OCC)C1CC(=O)/C=C/c1ccccc1,1.44 µM (inactive),2.04 µM (inactive),3.05 µM (inactive),2.98 µM,3.63 µM (inactive),3.74 µM (inactive),2.65 µM (inactive),7.57 µM (inactive),3.03 µM (inactive),5.35 µM (inactive),3.46 µM (inactive),2.61 µM (inactive),2.65 µM (inactive),4.06 µM (inactive),1.94 µM (inactive),4.45 µM (inactive),2.81 µM (inactive),1.97 µM (inactive),2.74 µM (inactive),3.34 µM (inactive)
COc1cc(C(=O)N(C(=S)OC23CC4CC(CC(C4)C2)C3)c2ccccc2)cc(OC)c1OC,31.3 µM (inactive),16.4 µM (inactive),26.5 µM (inactive),26.5 µM,,42.8 µM (inactive),27 µM (inactive),30.5 µM (inactive),27.1 µM (inactive),25.8 µM (inactive),19 µM (inactive),9.73 µM (inactive),26.5 µM (inactive),29.1 µM (inactive),15.2 µM (inactive),18.9 µM (inactive),21.5 µM (inactive),21 µM (inactive),29.5 µM (inactive),66.1 µM (inactive)
COc1ccc(/C=N/NS(=O)(=O)c2ccc(/C=C3\NC(=O)N(C)C3=O)cc2)cc1,> 100 µM (inactive),> 100 µM (inactive),> 100 µM (inactive),> 100 µM,43.6 µM (inactive),49.3 µM (inactive),56.2 µM (inactive),> 100 µM (inactive),37.5 µM (inactive),> 100 µM (inactive),> 100 µM (inactive),67 µM (inactive),> 100 µM (inactive),> 100 µM (inactive),> 100 µM (inactive),> 100 µM (inactive),> 100 µM (inactive),58.7 µM (inactive),> 100 µM (inactive),45.6 µM (inactive)
Nc1nc(Cl)cc(NCC2(CO)CCC(Cc3ccccc3)C2)n1 (stereo not given),19.3 µM (inactive),12.8 µM (inactive),20.2 µM (inactive),27.4 µM,26.5 µM (inactive),26 µM (inactive),15.6 µM (inactive),37.5 µM (inactive),18.6 µM (inactive),36 µM (inactive),25.6 µM (inactive),2.69 µM (inactive),33.3 µM (inactive),10.2 µM (inactive),23.6 µM (inactive),18.7 µM (inactive),22.3 µM (inactive),20.6 µM (inactive),7.73 µM (inactive),33.6 µM (inactive)
CCCCCCCC(CC(=O)NC(CO)C(=O)NC(CO)CC(C)C)OC(=O)CC(CCCCCCC)OC(=O)CC(CCCCCCC)OC1OC(C)C(O)C(OC2OC(C)C(OC(C)=O)C(O)C2O)C1O (stereo not given),15.2 µM (inactive),2.52 µM (inactive),3.55 µM (inactive),,10.7 µM (inactive),16.1 µM (inactive),9.27 µM (inactive),6.64 µM (inactive),3.97 µM (inactive),16.3 µM (inactive),4.41 µM (inactive),2.92 µM (inactive),10.1 µM (inactive),10.6 µM (inactive),,3.67 µM (inactive),16.6 µM (inactive),8.91 µM (inactive),6.53 µM (inactive),4.59 µM (inactive)
COc1ccc2nc3c4c(nccc4c2c1)-c1ncccc1C3=O,0.109 µM (active),0.604 µM (active),0.0748 µM (active),0.005 µM,0.0294 µM (active),0.18 µM (active),0.034 µM (active),0.109 µM (active),0.0261 µM (active),0.0586 µM (active),0.0319 µM (active),0.0217 µM (active),0.971 µM (active),0.0791 µM (active),0.376 µM (active),0.0118 µM (active),0.0622 µM (active),0.092 µM (active),0.0427 µM (active),0.0787 µM (active)
NCCCN(CCCCN(CCCN)Cc1ccc2ccccc2c1)Cc1ccc2ccccc2c1,1.65 µM (inactive),2.55 µM (inactive),1.86 µM (inactive),3.58 µM,1.82 µM (inactive),2.21 µM (inactive),1.82 µM (inactive),1.92 µM (inactive),1.55 µM (inactive),1.86 µM (inactive),1.8 µM (inactive),3.76 µM (inactive),1.84 µM (inactive),1.76 µM (inactive),,1.97 µM (inactive),1.8 µM (inactive),2.83 µM (inactive),2.2 µM (inactive),1.5 µM (inactive)
O=C1NN=C2C=C(c3ccc(Cl)cc3)CC(c3cccc(Br)c3)C12 (stereo not given),23.4 µM (inactive),> 100 µM (inactive),> 100 µM (inactive),19.3 µM,51.3 µM (inactive),54.5 µM (inactive),> 100 µM (inactive),,40 µM (inactive),> 100 µM (inactive),59.2 µM (inactive),42 µM (inactive),> 100 µM (inactive),> 100 µM (inactive),84.5 µM (inactive),> 100 µM (inactive),73.6 µM (inactive),2.74 µM (inactive),77.1 µM (inactive),80.9 µM (inactive)
CN1CCN(c2ccc3nc(C4=C(O)C(=O)[C@@H]5C(=C4O)N=C(CO)N5C)[nH]c3n2)CC1,> 100 µM (inactive),80.5 µM (inactive),> 100 µM (inactive),> 100 µM,> 100 µM (inactive),,61.1 µM (inactive),> 100 µM (inactive),> 100 µM (inactive),> 100 µM (inactive),41.4 µM (inactive),40.2 µM (inactive),> 100 µM (inactive),> 100 µM (inactive),,> 100 µM (inactive),> 100 µM (inactive),55 µM (inactive),93.8 µM (inactive),97.3 µM (inactive)
Cc1cc2c(cc1-c1cc3c(cc1C)C(C(C)C)=C(O)C(=O)/C3=C\Nc1nc(-c3ccccc3)cs1)/C(=C/Nc1nc(-c3ccccc3)cs1)C(=O)C(O)=C2C(C)C,35.7 µM (inactive),31.6 µM (inactive),32.1 µM (inactive),25.4 µM,16.8 µM (inactive),,25.6 µM (inactive),16.8 µM (inactive),18.2 µM (inactive),21.1 µM (inactive),14.4 µM (inactive),25.7 µM (inactive),> 10 µM (inactive),33.8 µM (inactive),21 µM (inactive),12.9 µM (inactive),22.2 µM (inactive),18.8 µM (inactive),16.9 µM (inactive),35.4 µM (inactive)
CCOC(=O)c1cc(C2CCN(Cc3ccccc3)C2=O)c(C(=O)C(=[N+]=[N-])C(C)=O)[nH]1 (stereo not given),> 100 µM (inactive),> 100 µM (inactive),> 100 µM (inactive),> 100 µM,> 100 µM (inactive),,> 100 µM (inactive),> 100 µM (inactive),> 100 µM (inactive),> 100 µM (inactive),> 100 µM (inactive),> 100 µM (inactive),> 100 µM (inactive),> 100 µM (inactive),> 100 µM (inactive),> 100 µM (inactive),> 100 µM (inactive),> 100 µM (inactive),> 100 µM (inactive),> 100 µM (inactive)
